In patent EP4494632A1, “LIPOPHILIC-BASED COMPOSITION” (Consejo Superior de Investigaciones Científicas (CSIC), priority 2023, dated 2025):
Where two headings read alike, the source gives them in different places.

Columns and labels:
[1] = in vitro
Excerpt: (§1) Furthermore, porcine skin permeation is studied. As mentioned in the introduction, the barrier structure of the skin differs greatly from that of the mucosae. In this sense, it will be evaluated whether the mucosae modified both by lipophilic compositions and by compositions that mimic the stratum corneum could have a barrier effect similar to that of the skin.
(§2) Next, the main physicochemical properties which are important in permeability through keratin tissues, such as the skin and mucosae, and the classification to which they belong are described in detail. […] Compounds to be evaluated, physicochemical properties, and classification.
(§3) As in the previous TEWL study, sublingual mucosa and porcine skin dermatomized to a thickness of 500-700 µm are used. Kinetic diffusion studies were performed using a vertical diffusion cell (Lara Spiral, Couternon, France (1.86 cm^2 and 3 ml). The receiver fluid (RF) used was PBS:EtOH (1:1). A water bath was set at 43°C to obtain a membrane surface temperature of 32 ± 1°C.
(§4) Subsequently, the drugs are deposited to determine their kinetics. To that end, 300 µl (infinite dose) of the 1% solution of the 4 drugs in methanol were applied to each Franz cell, in triplicate. Aliquots of 0.2 ml were collected at different times (30 min, 1 h, 2 h, 4 h). The active ingredients were diluted in suitable graduated flasks and filtered through a 0.22 µm nylon filter (Cameo, Sigma-Aldrich, St Louis, U. S.A.). They were then further analyzed with a high performance liquid chromatography diode array detector (HPLC-DAD).
(§5) The software used was OpenLab. […] The ICH guidelines were followed to obtain the calibration curve, the limit of quantification (LoQ), and the limit of detection (LoD). The HPLC-DAD analytical conditions and the method for the four active ingredients are described in detail in Table 4.
(§6) The equation is as follows (1): Qn = (Cn × Vc + ∑i = 1^(n−1) (Ci×Vs))/(A) [formula]
(§7) Wherein: Qn is the cumulative amount of active ingredient released at time n (µg/cm^2); Cn is the concentration of active ingredient in the sample (µg/ml); Vc is the volume of the vertical diffusion cell (7 ml); ∑i = 1^(n−1) Ci [formula] is the sum of the API concentrations (µg/ml) determined at sampling intervals 1 to n-1; Vs is the volume of the sample, and A is the surface area of the sample (1.77 cm^2).
(§8) Two parameters were used, Qn and % API release, to obtain graphs showing absorption and penetration kinetics (Y-axis). Time or its square root (√t) is indicated on the X-axis. […] This step allowed determining the best absorption model to represent the penetration kinetics of the API through the different membranes. The model was obtained with the non-linear regression software STATGRAPHICS plus 5 (Statgraphics Technologies, Inc., Virginia, U. S.A.), and the best equation was selected based on the highest correlation coefficient corrected by the number of degrees of freedom (R2 DoF). Once having defined the model, it was possible to calculate other parameters, such as the flow (J), permeability coefficient (Kp), delay time (TI), maximum concentration (Cmax), maximum time (tmax), and area under the curve (AUC). All results are expressed as mean ± standard deviation (SD).

[2] = in vitro; conditions: for Permea. coeff., Kp / Cmax at 1 %: pig; for Cmax at 1 %: Conc. Max.
Excerpt: as §1, §2, §3
After 1 h, the TEWL is measured again (Table 3). Table 3. Application of the composition F-MI and evaluation of transepidermal water loss, from the skin, from porcine sublingual mucosa and from the same mucosa modified by applying composition F-MI before applying the drugs.
as §4, §5, §6, §7, §8

[3] = BCS group; cited from earlier work
[4] = cited from earlier work
[5] = Kinetic permeation of biocides using vertical Franz diffusion cells
Method: as §3, §4, §6, §7, §8
(§9) Furthermore, porcine skin permeation is studied. As mentioned in the introduction, the barrier structure of the skin differs greatly from that of the mucosae.
(§10) The biocides evaluated were fungitrol (FUN), propiconazole (PRO), and permethrin (PER) dissolved in ethanol at a concentration of 1% for each active ingredient. […] Table 9. Biocides and their physicochemical properties.
(§11) Table 10. Conditions of the method which are used in HPLC/DAD analysis for fungitrol, propiconazole, and permethrin

[6] = as above; remark: listed apart in the source
Method: as §3, §4, §6, §7, §8, §9, §10, §11

[7] = sublingual mucosa with F-MI, 1% in ethanol
[8] = unmodified sublingual mucosa, 1% in ethanol
[9] = skin, 300 µl of 1% solution in methanol

Structure (SMILES) | Area under the curve, AUC [1] | Flow, J ([1]; pig, 1 %) | Latency time, LT ([1]; pig, 1 %) | Group [3] | Flow, J ([5]; skin, 1% in ethanol) | Latency time, LT ([5]; skin, 1% in ethanol) | Flow, J [6, 7] | Latency time, LT [6, 7] | Permea. coeff., Kp [6, 7] | Flow, J [6, 8] | Latency time, LT [6, 8] | LogP (pH 7.4) ([4]; biocides, Table 9, PubChem) | other results
Cn1c(=O)c2c(ncn2C)n(C)c1=O [Caffeine (CAF), Caffeine] | 0.41±0.27 mg/cm^2 | 75.09±51.32 µg/cm^2/h | 0.65 ± 0.24 h | 1 |  |  |  |  |  |  |  |  | Conc. Max., Cmax [1]: 107.23±57.7 3 µg/ml; Permea. coeff., Kp ([1]; pig): 6.06±4.12 10^-3cm/h; Permea. coeff., Kp [2]: 34.55±6.56 10^-3cm/h; Permea. coeff., Kp ([2]; 1 h): 8.28±2.48 10^-3cm/h
C[C@@H]1C[C@H]2[C@@H]3CCC4=CC(=O)C=C[C@]4(C)[C@@]3(F)[C@@H](O)C[C@]2(C)[C@@]1(O)C(=O)CO [Dexamethasone (DEX), Dexamethasone] | 0.03±0.01 mg/cm^2 | 5,84±3,46 µg/cm^2/h | 0,62±0,16 h |  |  |  |  |  |  |  |  |  | Cmax at 1 % ([1]; pig): 67400 ng/mL; Cmax at 1 % [2]: 315000 ng/mL; LogP (pH 7.4) ([4]; drugs, Table 2): 1.74
CCCCNC(=O)OCC#CI [Fungitrol (FUN), 3-lodo-2-propynyl butylcarbamate] |  |  |  |  | 6.02±3.93 µg/cm^2/h | 0.70 ± 0.00 h | 5.59±1.32 µg/cm^2/h | 0.65 ± 0.08 h | 0.61±0.14 10^-3cm/h | 62.88±29.97 µg/cm^2/h | -0.34 ± 1.32 h | 2.4 | Permea. coeff., Kp ([5]; skin, 1% in ethanol): 1.00±0.40 10^-3cm/h; Permea. coeff., Kp [6, 8]: 6.80±3.26 10^-3cm/h
CC(C)Cc1ccc(C(C)C(=O)O)cc1 (centres unmarked) [Ibuprofen (IBU), Ibuprofen] | 0.10 ± 0.01 mg/cm^2 | 24.79 ± 2.75 µg/cm^2/h | -0.24 ± 0.19 h | 2 |  |  |  |  |  |  |  |  | Cmax at 1 % ([1]; pig): 21900 ± 1980 ng/mL; Permea. coeff., Kp ([1]; pig): 2.05 ± 0.23 10^-3cm/h; Permea. coeff., Kp [2]: 28.67±0.49 10^-3cm/h; Permea. coeff., Kp ([2]; 1 h): 41.18±4.09 10^-3cm/h; Cmax at 1 % [2]: 341000 ± 63600 ng/mL
CC[C@H](C)[C@H]1O[C@]2(CC[C@@H]1C)C[C@@H]1C[C@@H](C/C=C(\C)[C@@H](O[C@H]3C[C@H](OC)[C@@H](O[C@H]4C[C@H](OC)[C@@H](O)[C@H](C)O4)[C@H](C)O3)[C@@H](C)/C=C/C=C3\CO[C@@H]4[C@H](O)C(C)=C[C@@H](C(=O)O1)[C@]34O)O2 [Ivermectin (IVE), Ivermectin] |  |  |  | 4 |  |  |  |  |  |  |  |  | Flow, J [1, 9]: 3.13±0.86 µg/cm^2/h; Latency time, LT [1, 9]: 0.59 ± 0.28 h; permeability through the unmodified mucosa compared to the skin [2]: 20 times; Latency time, LT ([2]; sublingual mucosa with F-MI (70 µl deposited 1 h before), 1% solution in methanol): 0.28 ± 0.02 h; Flow, J ([2]; unmodified sublingual mucosa, 1% solution in methanol): 63.75±1.57 µg/cm^2/h; LogP (pH 7.4) ([4]; drugs, Table 2): 5.83
CC1(C)C(C=C(Cl)Cl)C1C(=O)OCc1cccc(Oc2ccccc2)c1 (centres unmarked) [Permethrin (PER), Permethrin] |  |  |  |  | 2.93±0.23 µg/cm^2/h | -1.49 ± 0.66 h | 3.85±4.00 µg/cm^2/h | -0.28 ± 1.77 h | 0.26±0.27 10^-3cm/h | 58.67±45.51 µg/cm^2/h | -0.53 ± 1.14 h | 6.5 | Cmax at 1 % ([5]; pig): 9350 ± 110 ng/mL; Permea. coeff., Kp ([5]; pig): 0.20±0.015 10^-3cm/h; Cmax at 1 % ([6]; pig): 15700 ± 20300 ng/mL; Permea. coeff., Kp ([6]; pig): 4.02±3.12 10^-3cm/h
CCCC1COC(Cn2cncn2)(c2ccc(Cl)cc2Cl)O1 (centres unmarked) [Propiconazole (PRO), Propiconazole] |  |  |  |  | 2.26±1.48 µg/cm^2/h | 0.60 ± 0.015 h | 6.62±3.74 µg/cm^2/h | 1.66 ± 1.00 h | 0.70±0.39 10^-3cm/h | 63.92±44.92 µg/cm^2/h | -0.04 ± 1.68 h | 3.7 | Permea. coeff., Kp ([5]; pig): 0.24±0.16 10^-3cm/h; Permea. coeff., Kp [6, 8]: 6.80±4.78 10^-3cm/h
